According to the NIST ThermoML archive (doi:10.1016/j.fluid.2018.09.026):
Where “and” joins values, the source holds several entries; their conditions need not be identical. Equal entries are not always repeated.

Settings: Liquid; for mass density: 333.15 K, Vibrating tube method; for viscosity: Vibrating wire viscometry

OCCOCCOCCO [triethylene glycol]
Settings | mass density [kg/m3]
2100 kPa | 1092.7
3070 kPa | 1093.2
5060 kPa | 1094.2
6980 kPa | 1095.2
9970 kPa | 1096.6
14840 kPa | 1099
19660 kPa | 1101.3
24670 kPa | 1103.7
29610 kPa | 1106
34530 kPa | 1108.2
39400 kPa | 1110.3
44280 kPa | 1112.5
49110 kPa | 1114.5
54040 kPa | 1116.5
59060 kPa | 1118.6
63830 kPa | 1120.5
68770 kPa | 1122.4

Settings | viscosity
333.21 K, 150 kPa | 9.306 mPa·s [middle of 4 runs]
333.21 K, 170 kPa | 9.339 mPa·s [middle of 7 runs]
333.21 K, 750 kPa | 9.338 mPa·s
333.21 K, 760 kPa | 9.422 mPa·s and 9.347 mPa·s
333.21 K, 790 kPa | 9.383 mPa·s
333.21 K, 1460 kPa | 9.386 mPa·s [middle of 4 runs]
333.21 K, 1470 kPa | 9.379 mPa·s and 9.375 mPa·s and 9.363 mPa·s
333.21 K, 4930 kPa | 9.61 mPa·s
333.21 K, 4940 kPa | 9.609 mPa·s and 9.653 mPa·s
333.21 K, 4950 kPa | 9.655 mPa·s [middle of 4 runs]
333.21 K, 4970 kPa | 9.688 mPa·s and 9.672 mPa·s
333.21 K, 4980 kPa | 9.595 mPa·s and 9.684 mPa·s
333.21 K, 4990 kPa | 9.704 mPa·s
333.21 K, 5030 kPa | 9.613 mPa·s
333.21 K, 9610 kPa | 10.02 mPa·s
333.21 K, 9620 kPa | 9.96 mPa·s and 9.899 mPa·s
333.21 K, 9680 kPa | 9.927 mPa·s
333.21 K, 9690 kPa | 9.942 mPa·s and 9.978 mPa·s
333.21 K, 9700 kPa | 9.918 mPa·s
333.21 K, 9720 kPa | 9.986 mPa·s
333.21 K, 20900 kPa | 10.78 mPa·s
333.21 K, 20930 kPa | 10.79 mPa·s
333.21 K, 20940 kPa | 10.78 mPa·s and 10.79 mPa·s
333.21 K, 29220 kPa | 11.36 mPa·s
333.21 K, 29260 kPa | 11.37 mPa·s
333.21 K, 29290 kPa | 11.28 mPa·s
333.21 K, 29370 kPa | 11.48 mPa·s
333.21 K, 29400 kPa | 11.32 mPa·s
333.21 K, 29410 kPa | 11.32 mPa·s
333.21 K, 29450 kPa | 11.36 mPa·s
333.21 K, 29460 kPa | 11.34 mPa·s
333.21 K, 29490 kPa | 11.36 mPa·s
333.21 K, 29520 kPa | 11.49 mPa·s
333.21 K, 29730 kPa | 11.35 mPa·s
333.21 K, 29740 kPa | 11.35 mPa·s
333.21 K, 29760 kPa | 11.47 mPa·s
333.21 K, 29770 kPa | 11.42 mPa·s
333.21 K, 37210 kPa | 11.94 mPa·s
333.21 K, 37260 kPa | 12.04 mPa·s
333.21 K, 37430 kPa | 11.99 mPa·s
333.21 K, 37490 kPa | 12.07 mPa·s
333.21 K, 38020 kPa | 12.13 mPa·s
333.21 K, 38150 kPa | 12.06 mPa·s
333.21 K, 38270 kPa | 12.05 mPa·s
333.21 K, 47910 kPa | 12.77 mPa·s
333.21 K, 48010 kPa | 12.75 mPa·s
333.21 K, 48280 kPa | 12.76 mPa·s
333.21 K, 49590 kPa | 12.91 mPa·s
333.21 K, 49640 kPa | 13.01 mPa·s
333.21 K, 49670 kPa | 12.99 mPa·s
333.21 K, 49700 kPa | 12.96 mPa·s
333.21 K, 49730 kPa | 12.91 mPa·s
333.21 K, 68790 kPa | 14.61 mPa·s
333.21 K, 69130 kPa | 14.52 mPa·s
333.21 K, 69650 kPa | 14.74 mPa·s
343.08 K, 200 kPa | 6.978 mPa·s and 6.969 mPa·s and 6.931 mPa·s
343.08 K, 1160 kPa | 6.971 mPa·s [middle of 4 runs]
343.08 K, 4890 kPa | 7.185 mPa·s
343.08 K, 4900 kPa | 7.179 mPa·s and 7.239 mPa·s and 7.214 mPa·s
343.08 K, 9750 kPa | 7.392 mPa·s
343.08 K, 9760 kPa | 7.403 mPa·s
343.08 K, 9770 kPa | 7.403 mPa·s
343.08 K, 20580 kPa | 8.071 mPa·s and 7.965 mPa·s
343.08 K, 20590 kPa | 8.036 mPa·s and 7.937 mPa·s
343.08 K, 20600 kPa | 8.08 mPa·s
343.08 K, 30330 kPa | 8.459 mPa·s
343.08 K, 30350 kPa | 8.469 mPa·s and 8.515 mPa·s and 8.474 mPa·s
343.08 K, 30390 kPa | 8.519 mPa·s
343.08 K, 39560 kPa | 8.994 mPa·s
343.08 K, 39590 kPa | 9.055 mPa·s
343.08 K, 39640 kPa | 9.065 mPa·s
343.08 K, 50360 kPa | 9.671 mPa·s
343.08 K, 50420 kPa | 9.687 mPa·s
343.08 K, 50470 kPa | 9.572 mPa·s
343.08 K, 50570 kPa | 9.608 mPa·s
343.08 K, 67230 kPa | 10.62 mPa·s
